Data taken from patent US7098340B2, “Benzyl sulfonamide derivatives” (Warner Lambert Company LLC, priority 2003, dated 2006).

Target: T1, androgen receptor (Homo sapiens, UniProt P10275)
T1 sequence (P10275 1-920 Q868H): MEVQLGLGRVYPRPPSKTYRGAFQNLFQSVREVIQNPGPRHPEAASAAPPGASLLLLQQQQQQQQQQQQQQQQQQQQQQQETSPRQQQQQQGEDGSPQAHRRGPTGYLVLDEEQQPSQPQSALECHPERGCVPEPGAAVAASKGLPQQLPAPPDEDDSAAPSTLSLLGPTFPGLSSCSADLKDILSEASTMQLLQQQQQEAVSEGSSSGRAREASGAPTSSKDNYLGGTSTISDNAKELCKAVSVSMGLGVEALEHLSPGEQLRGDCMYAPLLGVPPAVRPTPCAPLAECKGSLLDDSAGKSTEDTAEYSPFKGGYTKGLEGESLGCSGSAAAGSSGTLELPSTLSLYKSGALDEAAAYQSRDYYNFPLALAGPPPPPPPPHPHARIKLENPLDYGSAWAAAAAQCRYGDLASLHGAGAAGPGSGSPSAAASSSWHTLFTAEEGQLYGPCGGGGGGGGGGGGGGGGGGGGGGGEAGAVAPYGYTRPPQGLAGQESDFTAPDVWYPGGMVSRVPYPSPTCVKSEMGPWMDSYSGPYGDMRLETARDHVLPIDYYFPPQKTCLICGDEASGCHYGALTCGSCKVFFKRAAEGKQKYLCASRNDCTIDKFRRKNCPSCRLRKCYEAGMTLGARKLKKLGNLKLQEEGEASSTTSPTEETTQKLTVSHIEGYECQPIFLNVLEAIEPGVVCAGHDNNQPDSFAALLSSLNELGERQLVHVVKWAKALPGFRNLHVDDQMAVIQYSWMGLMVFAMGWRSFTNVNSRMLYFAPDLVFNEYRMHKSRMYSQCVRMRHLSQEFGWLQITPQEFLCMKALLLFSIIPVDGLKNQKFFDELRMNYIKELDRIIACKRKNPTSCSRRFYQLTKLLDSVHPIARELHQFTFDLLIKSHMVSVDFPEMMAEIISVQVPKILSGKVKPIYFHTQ
Assay: AR Antagonist Cell Assay (MMTV-luciferase reporter, DHT-stimulated)
Type: cell-based
Details: MDA-MB453-MMTV clone 54-19 cells; antagonism of 100 pM DHT, 17 hr, luciferase readout
Summary of the method: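 MDA-MB453 cells stably carrying MMTV-ARE-firefly luciferase, in 1% charcoal-treated serum, preincubated 30 min with compound (10 uM or 1 uM) then stimulated with 100 pM DHT for 17 h at 37° C. Luminescence read; result as % inhibition of DHT fold induction.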

O=c1cc(C(F)(F)F)c2cc(Cc3ccc(S(=O)(=O)Nc4cc5ccccc5cn4)cc3)ccc2[nH]1 [Example 27, N-Isoquinolin-3-yl-4-(2-oxo-4-trifluoromethyl-1,2-dihydroquinolin-6-ylmethyl)-benzenesulfonamide] and O=c1cc(C(F)(F)F)c2cc(Cc3ccc(S(=O)(=O)Nc4cccc(OC(F)(F)F)c4)cc3)ccc2[nH]1 [Example 42, 4-(2-Oxo-4-trifluoromethyl-1,2-dihydroquinolin-6-ylmethyl)-N-(3-trifiuoromethoxyphenyl)-benzenesulfonamide] cannot be ordered by IC50: greater than 10 µM for the first, greater than 10 µM for the second.

Going from O=c1cc(C(F)(F)F)c2cc(Cc3ccc(S(=O)(=O)NCCc4cccs4)cc3)ccc2o1 [Example 176, 4-(2-Oxo-4-trifluoromethyl-2H-chromen-6-ylmethyl)-N-(2-thiophen-2-ylethyl)benzenesulfonamide] to O=c1cc(C(F)(F)F)c2cc(Cc3ccc(S(=O)(=O)NCc4cccnc4)cc3)ccc2o1 [Example 163, 4-(2-Oxo-4-trifluoromethyl-2H-chromen-6-ylmethyl)-N-pyridin-3-ylmethylbenzenesulfonamide], the IC50 falls from 6 µM to 3.08 µM (1.9-fold).

First: O=c1cc(C(F)(F)F)c2cc(Cc3ccc(S(=O)(=O)NC4CCN(Cc5ccccc5)CC4)cc3)ccc2[nH]1 [Example 52, N-(1-Benzylpipendin-4-yl)-4-(2-oxo-4-trifluoromethyl-1,2-dihydroquinolin-6-ylmethyl)-benzenesulfonamide]
Second: O=c1cc(C(F)(F)F)c2cc(Cc3ccc(S(=O)(=O)NC4CCN(Cc5ccccc5)C4)cc3)ccc2[nH]1 (stereo not drawn) [Example 86]
The IC50 of the first is 4.3-fold higher: 9.9 µM for the first, 2.28 µM for the second.

Compared with Cc1ccc(NS(=O)(=O)c2ccc(Cc3ccc4oc(=O)cc(C(F)(F)F)c4c3)cc2)cc1 [Example 116, 4-(2-Oxo-4-trifluoromethyl-2H-chromen-6-ylmethyl)-N-p-tolylbenzenesulfonamide], O=c1cc(C(F)(F)F)c2cc(Cc3ccc(S(=O)(=O)Nc4ccc(F)cc4)cc3)ccc2o1 [Example 117, N-(4-Fluorophenyl)-4-(2-oxo-4-trifluoromethyl-2H-chromen-6-ylmethyl)benzenesulfonamide] is 2.9-fold higher in IC50: 1.21 µM for the first, 3.46 µM for the second.

O=c1cc(C(F)(F)F)c2cc(Cc3ccc(S(=O)(=O)N(CCO)Cc4ccccc4)cc3)ccc2o1 [Example 103, N-Benzyl-N-(2-hydroxyethyl)-4-(2-oxo-4-trifluoromethyl-2H-chromen-6-ylmethyl)-benzenesulfonamide] and CCCCN(CCO)S(=O)(=O)c1ccc(Cc2ccc3oc(=O)cc(C(F)(F)F)c3c2)cc1 [Example 100, N-Butyl-N-(2-hydroxyethyl)-4-(2-oxo-4-trifluoromethyl-2H-chromen-6-ylmethyl)-benzenesulfonamide] are the same in IC50: roughly 10 µM for the first, roughly 10 µM for the second.

Going from O=c1cc(C(F)(F)F)c2cc(Cc3ccc(S(=O)(=O)NC[C@H](O)CO)cc3)ccc2o1 [Example 160, N-(2,3-Dihydroxypropyl)-4-(2-oxo-4-trifluoromethyl-2H-chromen-6-ylmethyl)benzenesulfonamide] to O=c1cc(C(F)(F)F)c2cc(Cc3ccc(S(=O)(=O)Nc4ccc(CCO)cc4)cc3)ccc2o1 [Example 151, N-[4-(2-Hydroxyethyl)phenyl]-4-(2-oxo-4-trifluoromethyl-2H-chromen-6-ylmethyl)-benzenesulfonamide], the IC50 falls from greater than 10 µM to 1.75 µM. The second is the more potent here.

Compared with C#Cc1ccc(NS(=O)(=O)c2ccc(Cc3ccc4oc(=O)cc(C(F)(F)F)c4c3)cc2)cc1 [Example 118, N-(4-Ethynylphenyl)-4-(2-oxo-4-trifluoromethyl-2H-chromen-6-ylmethyl)-benzenesulfonamide], C#Cc1ccc(NS(=O)(=O)c2ccc(Cc3ccc4[nH]c(=O)cc(C(F)(F)F)c4c3)cc2)cc1 [Example 15, N-(4-Ethynylphenyl)-4-(2-oxo-4-trifluoromethyl-1,2-dihydroquinolin-ylmethyl)benzenesulfonamide] is 2-fold lower in IC50: 5.47 µM for the first, 2.8 µM for the second. The second is the more potent here.

First: O=c1cc(C(F)(F)F)c2cc(Cc3ccc(S(=O)(=O)NCc4ccccc4C(F)(F)F)cc3)ccc2o1 [Example 201, 4-(2-Oxo-4-trifluoromethyl-2H-chromen-6-ylmethyl)-N-(2-trifluoromethylbenzyl)-benzenesulfonamide]
Second: CSc1ccccc1CNS(=O)(=O)c1ccc(Cc2ccc3oc(=O)cc(C(F)(F)F)c3c2)cc1 [Example 194, N-(2-Methylsulfanylbenzyl)-4-(2-oxo-4-trifluoromethyl-2H-chromen-6-ylmethyl)benzenesulfonamide]
The IC50 of the first is 2-fold lower: 4.04 µM for the first, 8 µM for the second. The first is the more potent here.

First: O=c1cc(C(F)(F)F)c2cc(Cc3ccc(S(=O)(=O)NCCCn4ccnc4)cc3)ccc2[nH]1 [Example 60, N-(3-Imidazol-1-ylpropyl)-4-(2-oxo-4-trifluoromethyl-1,2-dihydroquinolin-6-ylmethyl)-benzenesulfonamide]
Second: COCCNS(=O)(=O)c1ccc(Cc2ccc3[nH]c(=O)cc(C(F)(F)F)c3c2)cc1 [Example 53, N-(2-Methoxyethyl)-4-(2-oxo-4-trifluoromethyl-1,2-dihydroquinolin-6-ylmethyl)-benzenesulfonamide]
The IC50 of the first is lower: 9.16 µM for the first, greater than 10 µM for the second. The first is the more potent here.

Cc1ccc(CNS(=O)(=O)c2ccc(Cc3ccc4oc(=O)cc(C(F)(F)F)c4c3)cc2)c(F)c1F [Example 197, N-(2,3-Difluoro-4-methylbenzyl)-4-(2-oxo-4-trifluoromethyl-2H-chromen-6-ylmethyl)benzenesulfonamide] and Cc1cccc(NS(=O)(=O)c2ccc(Cc3ccc4oc(=O)cc(C(F)(F)F)c4c3)cc2)c1 [Example 115, 4-(2-Oxo-4-trifluoromethyl-2H-chromen-6-ylmethyl)-N-m-tolylbenzenesulfonamide] are within 1.5-fold of each other in IC50: 1.94 µM for the first, 2.05 µM for the second.

First: CCOC(=O)CC(NS(=O)(=O)c1ccc(Cc2ccc3oc(=O)cc(C(F)(F)F)c3c2)cc1)c1ccccc1 (stereo not drawn) [Example 205, 3-[4-(2-Oxo-4-trifluoromethyl-2H-chromen-6-ylmethyl)-benzenesulfonylamino]-3-phenylpropionic acid ethyl ester]
Second: CCOC(=O)C(NS(=O)(=O)c1ccc(Cc2ccc3[nH]c(=O)cc(C(F)(F)F)c3c2)cc1)c1ccccc1 (stereo not drawn) [Example 89, [4-(2-Oxo-4-trifluoromethyl-1,2-dihydroquinolin-6-ylmethyl)-benzenesulfonylamino]-phenylacetic acid ethyl ester]
The IC50 of the first is lower: 3.43 µM for the first, greater than 10 µM for the second.

CCc1cccc(NS(=O)(=O)c2ccc(Cc3ccc4oc(=O)cc(C(F)(F)F)c4c3)cc2)c1 [Example 119, N-(3-Ethylphenyl)-4-(2-oxo-4-trifluoromethyl-2H-chromen-6-ylmethyl)-benzenesulfonamide] and O=c1cc(C(F)(F)F)c2cc(Cc3ccc(S(=O)(=O)Nc4ccc5c(c4)OCO5)cc3)ccc2o1 [Example 131, N-Benzo[1,3]dioxol-5-yl-4-(2-oxo-4-trifluoromethyl-2H-chromen-6-ylmethyl)-benzenesulfonamide] are within 1.5-fold of each other in IC50: 3.42 µM for the first, 2.4 µM for the second.

O=c1cc(C(F)(F)F)c2cc(Cc3ccc(S(=O)(=O)NCc4c(F)ccc(F)c4Cl)cc3)ccc2[nH]1 [Example 87, N-(2-Chloro-3,6-difluorobenzyl)-4-(2-oxo-4-trifluoromethyl-1,2-dihydroquinolin-6-ylmethyl)-benzenesulfonamide] and O=c1cc(C(F)(F)F)c2cc(Cc3ccc(S(=O)(=O)NCc4cc(Cl)ccc4F)cc3)ccc2[nH]1 [Example 76, N-(5-Chloro-2-fluorobenzyl)-4-(2-oxo-4-trifluoromethyl-1,2-dihydroquinolin-6-ylmethyl)-benzenesulfonamide] cannot be ordered by IC50: greater than 10 µM for the first, greater than 10 µM for the second.

Going from CC(C)(NS(=O)(=O)c1ccc(Cc2ccc3oc(=O)cc(C(F)(F)F)c3c2)cc1)c1ccccc1 [Example 179, N-(1-Methyl-1-phenylethyl)-4-(2-oxo-4-trifluoromethyl-2H-chromen-6-ylmethyl)benzenesulfonamide] to O=c1cc(C(F)(F)F)c2cc(Cc3ccc(S(=O)(=O)Nc4cccc5c4CCC5)cc3)ccc2o1 [Example 128, N-Indan-4-yl-4-(2-oxo-4-trifluoromethyl-2H-chromen-6-ylmethyl)benzenesulfonamide], the IC50 falls from greater than 10 µM to 4.77 µM.

Compared with O=c1cc(C(F)(F)F)c2cc(Cc3ccc(S(=O)(=O)NCc4ccccc4OC(F)F)cc3)ccc2[nH]1 [Example 83, N-(2-Difluoromethoxybenzyl)-4-(2-oxo-4-trifluoromethyl-1,2-dihydroquinolin-6-ylmethyl)-benzenesulfonamide], O=c1cc(C(F)(F)F)c2cc(Cc3ccc(S(=O)(=O)Nc4ccc5c(c4)CCC5)cc3)ccc2o1 [Example 127, N-Indan-5-yl-4-(2-oxo-4-trifluoromethyl-2H-chromen-6-ylmethyl)benzenesulfonamide] is lower in IC50: greater than 10 µM for the first, 2.77 µM for the second. The second is the more potent here.
